Reference: patent US5087627A, “Agent for treatment of disorders of the cerebro-neural transmission system” (Santen Pharmaceutical Co., Ltd., priority 1989, dated 1992)
Structures can show the parent of a compound that is named as a salt. Where two headings read alike, the source gives them in different places.

Legend:
5-HT2 receptor = biological target: T1, 5-HT2 receptor (Oryctolagus cuniculus, UniProt G1SYA7); test: antagonistic test against 5-HT2 using vessel (thoracic aorta) of rabbit, 5-HT-induced contraction; parameters: species or system tissue, rabbit (Japanese white)
T1 construct: The isolated arteries were helically cut into strips; from tissue; host or cells: thoracic aorta of Japanese white rabbit (helical strips)
Protocol: Therefore, in this test, the efficacy of the Compound was examined using thoracic aorta of rabbit.
Japanese white rabbits were sacrificed by cervical fracture and exsanguinated. Thoracic aortas were exciesd rapidly. The isolated arteries were helically cut into strips, approximately 3 mm wide, and suspended in 20 ml organ bath chambers containing Krebs-Henseleit solution. Resting tensions of aortas were maintained in 1.5 g. The organ bath chambers were maintained at 37° C. and aerated continuously with 95% O2 -5% CO2.
After equilibration, 5-HT (10^-6 M) was added into each organ bath chamber. After the 5-HT-induced contraction was ascertained to be constant and reproducible, each test compound were added and 30 minutes after 5-HT was added again, and their effect on 5-HT induced contraction was examined.
The contraction was measured with various concentrations of the test compound. According to the difference between the contraction caused by pre-treatment with the test compound and by 5-HT alone, the concentration which can inhibit 50% of the contraction caused by 5-HT alone was calculated (IC50).

[1] = test system: CXM - induced amnesia (impairment of memory); parameters: species or system mice; details: mouse, in vivo
[2] = test system: PCA - induced amnesia (impairment of memory); test: one-trial passive avoidance test in mice, PCA - induced amnesia model
[3] = in words, prior art; cited from earlier work

T1 sequence (G1SYA7 1-469): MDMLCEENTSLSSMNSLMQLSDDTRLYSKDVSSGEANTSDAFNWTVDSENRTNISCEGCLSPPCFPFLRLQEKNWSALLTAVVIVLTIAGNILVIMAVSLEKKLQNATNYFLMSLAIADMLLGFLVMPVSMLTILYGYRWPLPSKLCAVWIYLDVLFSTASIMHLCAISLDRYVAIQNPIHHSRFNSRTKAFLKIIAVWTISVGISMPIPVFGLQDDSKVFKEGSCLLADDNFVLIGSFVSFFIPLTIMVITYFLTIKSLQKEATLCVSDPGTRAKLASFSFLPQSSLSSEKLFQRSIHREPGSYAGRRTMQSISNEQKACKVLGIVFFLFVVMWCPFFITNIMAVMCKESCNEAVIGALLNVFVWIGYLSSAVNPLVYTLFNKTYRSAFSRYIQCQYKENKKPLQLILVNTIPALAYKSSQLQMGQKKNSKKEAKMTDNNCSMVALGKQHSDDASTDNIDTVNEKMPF

Question: With `COc1ccc(CCN2CCN(C(Cc3ccccc3)c3ccncc3)CC2)cc1OC` (racemic) [compound 8, (±)-1-[2-Phenyl-1-(4-pyridyl)ethyl]-4-[2-(3,4-dimethoxyphenyl)ethyl]piperazine dioxalate] as the compound, how does the IC50 (5-HT2 receptor) read?
Answer: 7 µM

Question: Which IC50 (5-HT2 receptor) does the source give for `c1ccc(CC(c2cccnc2)N2CCN(CCOc3ccc4c(c3)OCO4)CC2)cc1` (racemic) [compound 9, (±)-1-[(2-Phenyl)-1-(3-pyridyl)ethyl]-4-[2-(3,4-methylenedioxyphenoxy)ethyl]piperazine dioxalate] here?
Answer: 4.8 µM

Question: For `c1ccc(CC(c2ccccc2)N2CCN(CCOc3ccc4c(c3)OCO4)CC2)cc1` (racemic) [compound No. 7, (±)-1-(1,2-Diphenyl)ethyl-4-[2-(3,4-methylenedioxyphenoxy)ethyl]piperazine dihydrochloride], which “step-down latency (median)” value [1] is on record?
Answer: 123.9 s

Question: What about the “step-down latency (median)” value ([2]; mouse, in vivo) of the same compound?
Answer: 155.1 s

Question: What about the IC50 (5-HT2 receptor) of the same compound?
Answer: 2.7 µM

Question: What does the source list for `Fc1ccc(CC(c2ccc(F)cc2)N2CCN(CCOc3ccc4c(c3)OCO4)CC2)cc1` (racemic) [compound No. 10, (±)-1-[1,2-Bis(4-fluorophenyl)]ethyl-4-[2-[(3,4-methylenedioxy)phenoxy]ethyl]piperazine dihydrochloride]?
Answer: step-down latency (median) ([2]; PCA 5 mg/kg i.p., test compound 1.25 mg/kg p.o., 24 h after training, cut off 300 sec): 206.3 s; IC50 (5-HT2 receptor; rabbit thoracic aorta strips, 5-HT 10^-6 M, 30 minutes pre-treatment, 37° C., read-out: IC50 (concentration which can inhibit 50% of the contraction caused by 5-HT alone)): 2.1 µM

Question: Which analgesic effect [3] does the source give for `CN(C)C(Cc1ccccc1)c1ccccc1` (single isomer, unassigned; (-)) [lefetamine, (-)-N,N-dimethyl-1,2-diphenylethylamine] here?
Answer: excellent analgesic effect
